Values after ≈ are worked out from the molar mass of the structure shown.
Columns and labels:
[1] = system: Aspergillus fumigatus Kawasaki strain; experiment: In vivo antifungal activity, Aspergillus fumigatus infected mice, oral; set-up: species or system mouse; details: 25 mg/kg p.o. twice a day, 4 days, in 0.5% MC (ITZ: in PEG 400); for Mean Survival Days: 10 days observation; for Survival Number on Day 1 / Survival Number on Day 2 / Survival Number on Day 3 / Survival Number on Day 4: of 9 mice
Protocol: Asperoillus fumigatus Kawasaki strain having been cultured at 27° C. for 1 week was suspended in physiological saline, and the suspension (3×10^6 cells) was injected into the tail vein of a 4-week-old day male mouse (9 mice per group). Two days before the infection and on the day of the infection, 100 mg/kg of cyclophosphamide was intraperitoneally administered to each animal.
For comparison, compound (A) shown below which is described in EP 0421210A2, fluconazole (FCZ) and itraconazole (ITZ), were used as a comparative substance. Itraconazole was administered in a polyethylene glycol (400) solution. [drawing 4]

Acute toxicity in mice = type: in vivo, ICR male mouse; details: 1000 mg/kg oral, in 0.5% MC, 5 mice per group, 7 days
Candida albicans = experiment: In vitro antifungal activity, MIC on mycelium formation; type: cell-based; details: 37° C., 24 hours, Eagle's MEM with 10% fetal bovine serum
Protocol: (§1) Candida albicans (10^2 cells) or Aspergillus fumigatus (10^3 cells) was inoculated to 200 μl of an Eagle's minimum essential medium containing 10% fetal bovine serum and a test compound shown in Table 2 below at a dilution increasing by a factor of 2. The system was incubated at 37° C. for 24 hours in a 5 v/v% CO2 stream to obtain the minimum inhibitory concentration (MIC) on mycelium formation.

Aspergillus fumigatus = experiment: as above; type: cell-based; details: 37° C., 24 hours, Eagle's MEM with 10% fetal bovine serum
Protocol: as §1

Compound | Mean Survival Days [1] | Survival Number on Day 1 [1] | Survival Number on Day 2 [1] | Survival Number on Day 3 [1] | Survival Number on Day 4 [1] | life or death, acute toxicity (Acute toxicity in mice) | MIC on Mycelium Formation, C. albicans (Candida albicans) | MIC on Mycelium Formation, A. fumigatus (Aspergillus fumigatus)
CCC(C)n1ncn(-c2ccc(N3CCN(c4ccc(OCC5COC(Cn6cncn6)(c6ccc(Cl)cc6Cl)O5)cc4)CC3)cc2)c1=O (stereo not shown) [ITZ, itraconazole, reference compound] | 2.1 days | 9 | 9 | 9 | 1 | – | – | –
Cc1nnc(SC(C)C(O)(Cn2cncn2)c2ccc(F)cc2F)s1 (stereo not shown) [compound (A), reference compound] | 2.3 days | 9 | 9 | 3 | 0 | all of the mice died | – | –
CC(C)(Sc1ccc(-n2cncn2)nn1)C(O)(Cn1cncn1)c1ccc(F)cc1F (single isomer, unassigned; (-)) [Reference Example 12, (-)-2-(2,4-difluorophenyl)-3-methyl-1-(1H-1,2,4-triazol-1-yl)-3-(6-(1H-1,2,4-triazol-1-yl)-pyridazin-3-ylthio)butan-2-ol, reference compound] | – | – | – | – | – | – | 1.56 mg/L (≈ 3.51 µM) | 100 mg/L (≈ 225 µM)

From patent US5312815A, “Fungicidal (+)-2-(2,4-difluorophenyl)-3-methyl-1-(1H-1,2,4-triazol-1-yl)3-(6-(1H-1, 2,4-triazol-1-yl)pyridazin-3-ylthio) butan-2-ol” (Roussel Morishita Co., Ltd., priority 1992, dated 1994)
